ChEMBL document CHEMBL1140950, “Discovery of (2S,4R)-1-(2-aminoacetyl)-4-benzamidopyrrolidine-2-carboxylic acid hydrochloride (GAP-134)13, an orally active small molecule gap-junction modifier for the treatment of atrial fibrillation” (J Med Chem, 2009)
Calls of active or inactive are those of the source. The rule behind the calls is not given here. Where a SMILES comes first, the peptide text is derived from it. [ ]: non-standard residue; d: D form. dHyp = O=C(O)[C@H]1C[C@H](O)CN1

What was measured:
Mus musculus [1] = test: Antiarrhythmic effect in calcium chloride-induced CD1 mouse arrhythmia model assessed as gap-junction intracellular communication re-establishment-mediated prolongation of time to onset of cardiac conduction block at 10 pmol/kg, iv relative to control; format: functional, Heart
Mus musculus [2] = test: Antiarrhythmic effect in calcium chloride-induced CD1 mouse arrhythmia model assessed as gap-junction intracellular communication re-establishment-mediated prolongation of time to onset of cardiac conduction block at 1 nmol/kg, iv relative to control; format: functional, Heart
Mus musculus [3] = test: Antiarrhythmic effect in calcium chloride-induced CD1 mouse arrhythmia model assessed as gap-junction intracellular communication re-establishment-mediated prolongation of time to onset of cardiac conduction block at 100 pmol/kg, iv relative to control; format: functional, Heart
Mus musculus [4] = test: Antiarrhythmic effect in calcium chloride-induced CD1 mouse arrhythmia model assessed as gap-junction intracellular communication re-establishment-mediated prolongation of time to onset of cardiac conduction block at 1 pmol/kg, iv relative to control; format: functional, Heart
[5] = Oral bioavailability in dog; format: ADME, organism-based, Canis lupus familiaris; conditions: in vivo
[6] = Cmax in rat at 5 mg/kg, po; format: ADME, organism-based; set-up: dose 5 mg/kg, route oral; conditions: in vivo
[7] = (§1) Oral bioavailability in rat at 5 mg/kg; format: ADME, organism-based; conditions: in vivo
Cytochrome P450 2C9 = Cytochrome P450 2C9 (Homo sapiens, UniProt P11712); test: Inhibition of CYP2C9 at 3 uM; format: ADME
Mus musculus [8] = test: Antiarrhythmic effect in calcium chloride-induced po dosed CD1 mouse arrhythmia model assessed as gap-junction intracellular communication re-establishment-mediated prolongation of time to onset of cardiac conduction block relative to control; format: functional, Heart
Cardiac atrium = test: Prevention of metabolic stress-induced conduction velocity slowing in Sprague-Dawley rat atrium at 10 uM by microelectrode based assay; format: functional, tissue-based
[9] = Half life in rat at 5 mg/kg, po; format: ADME, organism-based; set-up: dose 5 mg/kg, route oral; conditions: in vivo
Cytochrome P450 3A4 = Cytochrome P450 3A4 (Homo sapiens, UniProt P08684); test: Inhibition of CYP3A4 at 3 uM; format: ADME
C6 [10] = test: Reduction of simulated ischemia-induced calcein uptake in rat C6 cells; format: functional, cell-based
[11] = Half life in rat at 0.5 mg/kg, iv; format: ADME, organism-based; set-up: dose 0.5 mg/kg, route intravenous; conditions: in vivo
[12] = Volume of distribution at steady state in rat at 0.5 mg/kg, iv; format: ADME, organism-based; set-up: dose 0.5 mg/kg, route intravenous; conditions: in vivo, read-out: Vdss
C6 [13] = test: Reduction of simulated ischemia-induced cell swelling in rat C6 cells; format: functional, cell-based
[14] = Clearance in rat at 0.5 mg/kg, iv; format: ADME, organism-based; set-up: dose 0.5 mg/kg, route intravenous; conditions: in vivo
[15] = Tmax in rat at 5 mg/kg, po; format: ADME, organism-based; set-up: dose 5 mg/kg, route oral; conditions: in vivo
[16] = (§2) AUC in rat at 5 mg/kg, po; format: ADME, organism-based, Plasma; set-up: dose 5 mg/kg, route oral; conditions: plasma
[17] = biological target: Voltage-gated inwardly rectifying potassium channel KCNH2 (Homo sapiens, UniProt Q12809); test: Inhibition of human ERG
Cytochrome P450 2D6 = Cytochrome P450 2D6 (Homo sapiens, UniProt P10635); test: Inhibition of CYP2D6 at 3 uM; format: ADME
Rattus norvegicus [18] = test: as §1; format: ADME, organism-based; conditions: in vivo
Rattus norvegicus [19] = test: as §2; format: ADME, organism-based, Plasma; set-up: dose 5 mg/kg, route oral; conditions: in vivo
Mus musculus [20] = test: Antiarrhythmic effect in calcium chloride-induced CD1 mouse arrhythmia model assessed as gap-junction intracellular communication re-establishment-mediated prolongation of time to onset of cardiac conduction block at 10 mg/kg, po relative to control; format: functional, organism-based; set-up: dose 10 mg/kg; conditions: Heart

Sequence of Cytochrome P450 2C9 (P11712 whole entry): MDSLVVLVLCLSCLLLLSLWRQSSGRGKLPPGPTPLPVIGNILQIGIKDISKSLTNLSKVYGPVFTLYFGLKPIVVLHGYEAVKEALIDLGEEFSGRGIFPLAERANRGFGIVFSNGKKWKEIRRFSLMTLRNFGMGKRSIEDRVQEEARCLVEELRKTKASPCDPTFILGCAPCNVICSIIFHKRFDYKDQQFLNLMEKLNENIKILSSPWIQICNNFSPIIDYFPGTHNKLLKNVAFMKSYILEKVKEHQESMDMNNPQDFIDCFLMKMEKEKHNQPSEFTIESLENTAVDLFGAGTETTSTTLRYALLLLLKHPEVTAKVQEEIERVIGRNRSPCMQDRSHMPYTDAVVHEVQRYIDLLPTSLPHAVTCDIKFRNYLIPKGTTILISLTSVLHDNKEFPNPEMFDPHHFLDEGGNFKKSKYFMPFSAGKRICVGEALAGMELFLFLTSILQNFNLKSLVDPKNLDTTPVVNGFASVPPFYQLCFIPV
Sequence of Cytochrome P450 3A4 (P08684 whole entry): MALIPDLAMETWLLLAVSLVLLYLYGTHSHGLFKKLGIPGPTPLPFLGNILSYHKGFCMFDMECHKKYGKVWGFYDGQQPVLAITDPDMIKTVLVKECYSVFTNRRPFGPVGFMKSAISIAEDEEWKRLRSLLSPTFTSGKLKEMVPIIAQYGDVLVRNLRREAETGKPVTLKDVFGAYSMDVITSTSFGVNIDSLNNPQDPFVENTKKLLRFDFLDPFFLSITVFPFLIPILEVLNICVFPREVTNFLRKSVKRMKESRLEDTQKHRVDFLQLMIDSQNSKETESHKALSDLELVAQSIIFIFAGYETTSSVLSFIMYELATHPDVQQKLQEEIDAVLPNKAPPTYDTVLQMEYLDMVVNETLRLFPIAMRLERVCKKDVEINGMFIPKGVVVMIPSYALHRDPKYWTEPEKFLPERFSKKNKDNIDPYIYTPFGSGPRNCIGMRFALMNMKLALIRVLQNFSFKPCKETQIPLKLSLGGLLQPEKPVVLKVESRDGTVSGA
Sequence of Cytochrome P450 2D6 (P10635 whole entry): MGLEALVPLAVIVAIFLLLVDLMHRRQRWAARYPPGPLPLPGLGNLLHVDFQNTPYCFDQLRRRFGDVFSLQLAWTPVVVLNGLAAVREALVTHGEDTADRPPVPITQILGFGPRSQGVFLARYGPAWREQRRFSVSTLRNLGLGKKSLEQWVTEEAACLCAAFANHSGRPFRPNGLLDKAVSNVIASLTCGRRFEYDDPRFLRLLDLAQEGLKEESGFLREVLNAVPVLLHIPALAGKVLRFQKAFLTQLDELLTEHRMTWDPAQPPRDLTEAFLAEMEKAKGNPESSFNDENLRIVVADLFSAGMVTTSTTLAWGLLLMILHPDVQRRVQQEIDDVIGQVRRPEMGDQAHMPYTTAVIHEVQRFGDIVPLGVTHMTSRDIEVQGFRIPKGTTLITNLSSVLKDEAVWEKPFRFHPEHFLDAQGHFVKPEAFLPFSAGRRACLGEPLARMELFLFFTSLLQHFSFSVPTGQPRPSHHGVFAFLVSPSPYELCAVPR
Sequence of Voltage-gated inwardly rectifying potassium channel KCNH2 (Q12809 whole entry): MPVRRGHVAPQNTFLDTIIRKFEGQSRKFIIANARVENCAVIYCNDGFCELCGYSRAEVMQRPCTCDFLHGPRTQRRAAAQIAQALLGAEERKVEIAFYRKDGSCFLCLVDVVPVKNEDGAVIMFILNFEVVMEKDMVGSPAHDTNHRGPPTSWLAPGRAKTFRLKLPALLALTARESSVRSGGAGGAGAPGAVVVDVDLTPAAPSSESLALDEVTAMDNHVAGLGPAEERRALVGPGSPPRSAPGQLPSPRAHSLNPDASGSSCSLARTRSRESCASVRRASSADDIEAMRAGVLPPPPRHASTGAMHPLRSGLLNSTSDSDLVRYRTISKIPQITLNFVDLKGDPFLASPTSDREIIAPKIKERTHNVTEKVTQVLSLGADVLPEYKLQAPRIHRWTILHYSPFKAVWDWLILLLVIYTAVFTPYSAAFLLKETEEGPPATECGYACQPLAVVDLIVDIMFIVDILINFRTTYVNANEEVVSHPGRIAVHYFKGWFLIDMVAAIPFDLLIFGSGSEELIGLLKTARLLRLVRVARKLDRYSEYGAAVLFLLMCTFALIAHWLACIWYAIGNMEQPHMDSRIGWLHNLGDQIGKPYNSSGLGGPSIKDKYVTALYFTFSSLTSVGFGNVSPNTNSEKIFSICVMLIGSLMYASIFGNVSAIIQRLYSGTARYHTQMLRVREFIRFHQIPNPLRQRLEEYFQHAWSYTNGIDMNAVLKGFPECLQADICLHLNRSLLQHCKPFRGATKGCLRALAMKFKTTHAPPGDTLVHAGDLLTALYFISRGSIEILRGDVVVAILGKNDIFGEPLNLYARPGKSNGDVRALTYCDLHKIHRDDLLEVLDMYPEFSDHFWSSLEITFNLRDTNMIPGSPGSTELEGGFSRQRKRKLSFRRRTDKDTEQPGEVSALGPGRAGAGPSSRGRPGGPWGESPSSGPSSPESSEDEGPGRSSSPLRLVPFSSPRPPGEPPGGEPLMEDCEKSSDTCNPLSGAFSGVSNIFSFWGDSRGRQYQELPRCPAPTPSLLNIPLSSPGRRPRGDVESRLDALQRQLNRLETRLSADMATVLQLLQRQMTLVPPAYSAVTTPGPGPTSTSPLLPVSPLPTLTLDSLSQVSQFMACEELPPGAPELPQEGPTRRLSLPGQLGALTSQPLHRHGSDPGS

SMILES	Activity (Mus musculus [1]) [%]	Activity (Mus musculus [2]) [%]	Activity (Mus musculus [3]) [%]	Activity (Mus musculus [4]) [%]	Cmax [6] [ng/mL]	Activity (Cardiac atrium)	half-life [9] [min]	half-life [11] [min]	Vd [12] [L/kg]	Tmax [15] [min]	also measured
NCC(=O)NCCCC[C@@H](NC(=O)c1ccc([N+](=O)[O-])cc1)C(=O)O	177	158	151	192							
Cl.NCC(=O)N1C[C@H](NC(=O)c2ccccc2)C[C@H]1C(=O)O	207	173	148	162	105	Active	114	48	0.61	30	bioavailability [5]: 21%; bioavailability [7]: 9%; Activity (Cytochrome P450 2C9): Not Active; Activity (Mus musculus [8]): 200%; Activity (Cytochrome P450 3A4): Not Active; Activity (C6 [10]): Dose-dependent effect; Activity (C6 [13]): Active; clearance [14]: 22 mL/min/kg; AUC [16]: 360 ng·h/mL; Activity [17]: Not Active; Activity (Cytochrome P450 2D6): Not Active
NC(=O)C[C@H](NC(=O)CO)C(=O)N[C@@H](Cc1ccc(O)cc1)C(N)=O	232	187	203	188	31.5	Active	30	18	0.9	24	F (Rattus norvegicus [18]): 0.7%; AUC (Rattus norvegicus [19]): 36 ng·h/mL
N[C@H](CCCCNC(=O)CNC(=O)c1ccc([N+](=O)[O-])cc1)CC(=O)O	206	201	197	124							
CC(=O)N[C@@H](C)C(=O)NCC(=O)N[C@@H](CC(N)=O)C(=O)N[C@@H](Cc1ccc(O)cc1)C(N)=O (Ac-AGNY-NH2)	157	136	205	228							
COc1ccc(C(=O)NCC(=O)NCCCC[C@@H](N)CC(=O)O)cc1	133	164	128	220	28	Active	90	18	0.4	45	bioavailability [7]: 2%; clearance [14]: 31 mL/min/kg; AUC [16]: 71 ng·h/mL
CC(=O)N[C@H](Cc1ccc(O)cc1)C(=O)N1CCC[C@@H]1C(=O)N1C[C@@H](O)C[C@@H]1C(=O)NCC(=O)N[C@H](C)C(=O)NCC(N)=O [ROTIGAPTIDE] (Ac-[dY][dP][dHyp]G[dA]G-NH2)	207	156	152	199		Active					Activity (C6 [10]): Dose-dependent effect; Activity (Mus musculus [20]): Active
